Assays:
[1] = tested on: exon 7-containing SMN protein; test: Western-blot analysis (H2 and H7 antibodies) of SMN protein in SMA lymphoid cell lines; type: cell-based, human
Text: Western-blot analysis. Rabbits were immunized with synthetic peptides containing either human SMN amino acids 279-288 from exon 7 or amino acids 72-84 from exon 2. Specific antibodies (H7 and H2 respectively) were purified from rabbit crude sera with an EAH-sepharose 4B column (Pharmacia) according to the manufacturer's instructions.
Protein samples, prepared from treated and untreated SMA lymphoid cells, were loaded on a 5% polyacrylamide stacking gel above a 12% separating gel, and the gel was run with a discontinuous buffer using Laemmli's method. After electrophoresis, proteins were transferred electrophoretically to polyvinyl difluoride membranes (Millipore Corp., Marlborough, Mass., USA). After the transfer, the membranes were blocked in TBST (50 mM Tris.HCl, pH 7.5, 150 mM NaCl, 0.05% Tween 20) containing 4% BSA (bovine serum albumin) for 2 hours at room temperature. Blots were incubated with a 1:800 dilution of anti-SMN exon 2 (H2) or anti-SMN exon 7 (H7) antibody in TBST for 2 hours at room temperature. […] The secondary antibody was detected with a 1.5% solution of 5-bromo-4-chloro-3-indoyl phosphate and 3% nitro blue tetrazolium in a developing buffer (100 mM NaCl, 5 mM MgCl2, 100 mM Tris.HCl, pH 9.5).

[2] = absorbed from the gastrointestinal tract; cited from earlier work
human SMA patients = test: Treatment of human SMA patients, oral; type: in vivo
SMA-like mice = test: Treatment of types 2 and 3 SMA-like mice (hSMN2 Smn-/-) via drinking water; type: in vivo, mouse
Method: To generate hSMN2 Smn^−/− mice, hSMN2 Smn^+/− mice were crossed to Smn^+/− mice. Progeny lacking the murine SMN locus were identified by genotyping. The presence of the hSMN2 transgene was also confirmed.
The effect of hydroxyurea on the symptoms of SMA-like mice were investigated. Hydroxyurea was administered to ten SMA-like mice with type 2 symptoms and ten SMA-like mice with type 3 symptoms. These mice were identified at birth by genotype and phenotype. Hydroxyurea was administered to the SMA-like mice as 1 mg/ml to 2 mg/ml solution available ad libitum in their drinking water. The amount of hydroxyurea taken by SMA-like mice was estimated to be approximate 5-10 mg/day. The survival time of hydroxyurea-treated type 2 SMA-like mice was longer, about 4 to 5 days longer on average, than untreated mice.
The effect of hydroxyurea administration on the tail phenotype of SMA-like mice was also monitored. The tails of untreated types 2 and 3 SMA-like mice have decreased diameter of muscle fibers, atrophy of muscle bundles, group atrophy and subcutaneous edema (Hsieh-Li et al. (2000) supra).

SMILES: NC(=O)NO [hydroxyurea]
- intact SMN protein in cytosolic and nuclear fractions ([1]; after 3 hours stimulation with 5 ng/ml to 500 μg/ml): increase
- levels of exon 7-containing SMN protein ([1]; lymphoid cell lines from different types of SMA patients, varying amounts, vs untreated controls): increase
- time to enter the serum after ingestion [2]: ≤ 2 h
- full-length SMN mRNA transcript in peripheral mononuclear cells (human SMA patients; SMA patients with SMN1 deletion, oral 15 to 25 mg/kg/day): elevated
- walking gait (human SMA patients; one type II patient, improved to a type III phenotype): improved
- clinical symptoms of all three patients (human SMA patients; oral 15 to 25 mg/kg/day): improved
- muscle strength (human SMA patients; other type II patient): improved muscle strength
- respirator dependence (human SMA patients; type I patient, on respirator before treatment): respirator free
- tail phenotype (SMA-like mice; most of types 2 and 3 SMA-like mice, after treatment): nearly normal phenotype
- frequency of chronic necrosis originating at the tip of the tail (SMA-like mice; treated SMA-like mice, 50% for untreated): 2%
- exon 7-containing SMN protein levels in multiple tissues, including spinal cord motor neurons (SMA-like mice; western blot and immunohistochemical studies, treated SMA-like mice): elevated
